Measurements taken from ChEMBL document CHEMBL1201862, “PubChem BioAssay data set” (2004).
The source made the active and inactive calls.

Tests used:
[1] = target: T1, RNA-binding protein pos-1 (Caenorhabditis elegans, UniProt G5EF15); test: inhibitors of POS-1/mex-3 RNA binding, dose response, biochemical, fluorescence polarization (AID 1964);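 further: purified POS-1 fused to maltose binding protein made in E. coli; potency of compounds blocking POS-1 binding to fluorescent RNA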
T1 sequence (G5EF15 whole entry): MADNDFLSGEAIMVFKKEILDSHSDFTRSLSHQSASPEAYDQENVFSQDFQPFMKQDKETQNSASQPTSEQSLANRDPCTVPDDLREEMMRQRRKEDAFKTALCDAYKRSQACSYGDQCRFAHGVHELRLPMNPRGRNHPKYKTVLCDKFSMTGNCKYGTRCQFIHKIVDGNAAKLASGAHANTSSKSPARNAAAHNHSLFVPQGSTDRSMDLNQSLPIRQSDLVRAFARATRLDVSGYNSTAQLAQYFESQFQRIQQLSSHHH

[2] = target: T2, Zinc finger protein mex-5 (Caenorhabditis elegans, UniProt Q9XUB2); test: MEX-5/TCR-2 RNA interaction inhibitors, dose response, biochemical, C. elegans, fluorescence polarization (AID 1960)
T2 sequence (Q9XUB2 whole entry): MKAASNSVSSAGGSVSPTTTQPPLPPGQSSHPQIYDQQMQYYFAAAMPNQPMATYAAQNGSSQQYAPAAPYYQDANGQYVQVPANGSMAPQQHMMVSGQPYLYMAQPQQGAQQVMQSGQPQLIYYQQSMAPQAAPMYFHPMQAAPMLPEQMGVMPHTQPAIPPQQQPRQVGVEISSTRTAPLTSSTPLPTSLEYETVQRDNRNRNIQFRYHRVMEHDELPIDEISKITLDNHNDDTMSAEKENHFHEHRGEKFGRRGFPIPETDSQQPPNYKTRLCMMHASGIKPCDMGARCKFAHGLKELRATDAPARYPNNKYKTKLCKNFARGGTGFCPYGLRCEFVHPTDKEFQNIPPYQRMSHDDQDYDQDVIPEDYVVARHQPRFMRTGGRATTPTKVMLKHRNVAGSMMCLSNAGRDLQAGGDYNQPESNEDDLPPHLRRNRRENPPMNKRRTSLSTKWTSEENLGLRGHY

[3] = target: G-protein coupled receptor 55 (Homo sapiens, UniProt Q9Y2T6); test: GPR55 agonists via beta-arrestin recruitment, primary screen, imaging, U2OS cells, beta-arrestin-GFP redistribution (AID 1961); format: functional
G-protein coupled receptor 55, sequence (Q9Y2T6 whole entry): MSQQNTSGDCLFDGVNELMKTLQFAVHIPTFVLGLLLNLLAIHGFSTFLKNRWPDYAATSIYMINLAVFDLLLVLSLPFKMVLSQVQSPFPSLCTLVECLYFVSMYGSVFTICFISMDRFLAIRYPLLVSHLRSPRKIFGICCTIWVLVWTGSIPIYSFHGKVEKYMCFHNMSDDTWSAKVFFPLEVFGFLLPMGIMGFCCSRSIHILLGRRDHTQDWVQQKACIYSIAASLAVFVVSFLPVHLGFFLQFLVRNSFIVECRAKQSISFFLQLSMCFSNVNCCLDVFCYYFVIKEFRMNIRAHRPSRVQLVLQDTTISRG

[4] = target: Neurotensin receptor type 1 (Homo sapiens, UniProt P30989); format: functional;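 further: Image-based confirmatory dose-response assay measuring agonist activity at NTR1; NTR1-expressing U2OS osteosarcoma cells imaged for beta-arrestin GFP spot formation; agonist potency where compounds increase beta-arrestin recruitment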
Neurotensin receptor type 1, sequence (P30989 whole entry): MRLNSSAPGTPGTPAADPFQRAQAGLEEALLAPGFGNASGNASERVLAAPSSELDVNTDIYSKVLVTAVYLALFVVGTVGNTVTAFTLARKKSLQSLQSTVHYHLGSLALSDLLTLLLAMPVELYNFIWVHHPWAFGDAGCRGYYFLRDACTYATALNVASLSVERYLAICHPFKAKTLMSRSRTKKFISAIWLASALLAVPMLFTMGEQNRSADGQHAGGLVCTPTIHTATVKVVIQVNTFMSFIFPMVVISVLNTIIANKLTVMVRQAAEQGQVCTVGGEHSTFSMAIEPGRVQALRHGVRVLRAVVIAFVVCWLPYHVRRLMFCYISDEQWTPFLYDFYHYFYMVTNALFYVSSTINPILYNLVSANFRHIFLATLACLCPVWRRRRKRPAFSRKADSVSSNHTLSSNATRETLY

[5] = target: T3, Endoribonuclease toxin MazF (Escherichia coli K-12, UniProt P0AE70); test: MazF toxin RNase activators, dose response, biochemical, fluorescence, single-stranded RNA substrate, uHTS hits (AID 588481); format: functional
T3 sequence (P0AE70 whole entry): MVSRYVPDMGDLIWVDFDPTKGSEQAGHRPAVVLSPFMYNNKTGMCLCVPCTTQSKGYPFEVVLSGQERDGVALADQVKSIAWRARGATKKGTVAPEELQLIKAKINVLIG

[6] = target: T3, Endoribonuclease toxin MazF; test: fluorescent RNA oligo signal without MazF, dose response, counter-screen for MazEF activator project, biochemical, fluorescence, single-stranded RNase substrate (AID 588502); format: functional
Coagulation factor XII = Coagulation factor XII (Homo sapiens, UniProt P00748); test: FXIIa inhibitor potency, concentration-response, biochemical (AID 716); format: functional
Coagulation factor XII, sequence (P00748 20-372 limits assumed): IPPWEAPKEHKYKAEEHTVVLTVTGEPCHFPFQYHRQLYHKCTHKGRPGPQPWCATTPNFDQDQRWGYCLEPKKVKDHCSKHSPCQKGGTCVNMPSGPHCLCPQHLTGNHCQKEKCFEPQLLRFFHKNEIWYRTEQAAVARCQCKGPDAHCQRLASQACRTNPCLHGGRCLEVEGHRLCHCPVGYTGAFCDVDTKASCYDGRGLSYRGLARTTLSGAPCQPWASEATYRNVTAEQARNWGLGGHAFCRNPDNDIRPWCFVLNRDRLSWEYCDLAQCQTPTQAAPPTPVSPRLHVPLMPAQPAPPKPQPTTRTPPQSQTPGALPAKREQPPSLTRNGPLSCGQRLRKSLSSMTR
Coagulation factor XII, sequence (P00748 373-615 limits assumed): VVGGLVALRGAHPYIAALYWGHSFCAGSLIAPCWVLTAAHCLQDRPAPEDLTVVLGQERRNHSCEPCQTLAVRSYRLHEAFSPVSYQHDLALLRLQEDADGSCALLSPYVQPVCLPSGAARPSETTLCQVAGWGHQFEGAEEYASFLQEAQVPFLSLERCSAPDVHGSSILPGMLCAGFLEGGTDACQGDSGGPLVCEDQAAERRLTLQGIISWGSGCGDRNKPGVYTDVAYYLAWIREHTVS

cells [7] = format: functional, cell-based
[8] = target: T4, Trace amine-associated receptor 1 (Homo sapiens, UniProt Q96RJ0); test: Fluorescence-based cell-based high throughput dose response assay to identify agonists of the human trace amine associated receptor 1 (TAAR1).; format: functional
T4 sequence (Q96RJ0 whole entry): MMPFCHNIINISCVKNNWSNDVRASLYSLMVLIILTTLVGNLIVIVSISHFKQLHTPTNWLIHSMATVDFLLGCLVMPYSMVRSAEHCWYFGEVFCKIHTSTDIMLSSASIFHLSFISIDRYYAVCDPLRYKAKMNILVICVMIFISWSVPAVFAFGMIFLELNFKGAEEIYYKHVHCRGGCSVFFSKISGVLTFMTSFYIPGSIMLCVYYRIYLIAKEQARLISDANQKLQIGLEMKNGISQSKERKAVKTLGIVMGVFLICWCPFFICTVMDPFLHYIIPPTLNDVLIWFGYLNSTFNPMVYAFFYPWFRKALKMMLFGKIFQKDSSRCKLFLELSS

[9] = target: T4, Trace amine-associated receptor 1; test: Counterscreen for agonists of the human trace amine associated receptor 1 (hTAAR1): Fluorescence-based cell-based high throughput dose response assay to identify hTAAR1 agonist that also desensitize TAAR1 receptor response.; format: functional
cells [10] = format: functional, cell-based; remark: listed apart in the source
[11] = target: T5, Tyrosine-protein phosphatase non-receptor type 7 (Homo sapiens, UniProt P35236); format: functional
T5 sequence (P35236 whole entry): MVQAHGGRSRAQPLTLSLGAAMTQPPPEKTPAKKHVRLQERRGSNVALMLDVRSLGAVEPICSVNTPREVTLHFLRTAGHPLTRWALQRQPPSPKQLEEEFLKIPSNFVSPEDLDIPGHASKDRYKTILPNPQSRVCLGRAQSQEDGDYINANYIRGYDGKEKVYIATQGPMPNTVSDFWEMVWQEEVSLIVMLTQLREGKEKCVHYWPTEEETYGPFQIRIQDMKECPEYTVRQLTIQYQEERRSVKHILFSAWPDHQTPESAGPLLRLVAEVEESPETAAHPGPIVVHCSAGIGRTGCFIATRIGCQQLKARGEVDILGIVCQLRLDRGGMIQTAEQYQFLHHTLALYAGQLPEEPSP

[12] = target: Glyceraldehyde-3-phosphate dehydrogenase (Homo sapiens, UniProt P04406)
Glyceraldehyde-3-phosphate dehydrogenase, sequence (P04406 whole entry): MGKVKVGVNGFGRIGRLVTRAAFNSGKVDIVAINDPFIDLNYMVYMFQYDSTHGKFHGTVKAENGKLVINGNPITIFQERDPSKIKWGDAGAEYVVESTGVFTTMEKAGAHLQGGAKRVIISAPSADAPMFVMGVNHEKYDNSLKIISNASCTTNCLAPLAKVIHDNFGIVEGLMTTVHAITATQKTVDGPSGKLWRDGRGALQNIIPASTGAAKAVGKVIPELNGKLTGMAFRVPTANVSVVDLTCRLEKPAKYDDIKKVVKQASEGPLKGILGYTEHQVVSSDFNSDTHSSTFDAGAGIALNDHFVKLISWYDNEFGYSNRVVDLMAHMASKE

[13] = target: Heat shock cognate 71 kDa protein (Homo sapiens, UniProt P11142); test: In Vitro Hsc70 Dose Response Fluorescence Polarization Assay. [Related pubchem assays: 1072 ]
Heat shock cognate 71 kDa protein, sequence (P11142 whole entry): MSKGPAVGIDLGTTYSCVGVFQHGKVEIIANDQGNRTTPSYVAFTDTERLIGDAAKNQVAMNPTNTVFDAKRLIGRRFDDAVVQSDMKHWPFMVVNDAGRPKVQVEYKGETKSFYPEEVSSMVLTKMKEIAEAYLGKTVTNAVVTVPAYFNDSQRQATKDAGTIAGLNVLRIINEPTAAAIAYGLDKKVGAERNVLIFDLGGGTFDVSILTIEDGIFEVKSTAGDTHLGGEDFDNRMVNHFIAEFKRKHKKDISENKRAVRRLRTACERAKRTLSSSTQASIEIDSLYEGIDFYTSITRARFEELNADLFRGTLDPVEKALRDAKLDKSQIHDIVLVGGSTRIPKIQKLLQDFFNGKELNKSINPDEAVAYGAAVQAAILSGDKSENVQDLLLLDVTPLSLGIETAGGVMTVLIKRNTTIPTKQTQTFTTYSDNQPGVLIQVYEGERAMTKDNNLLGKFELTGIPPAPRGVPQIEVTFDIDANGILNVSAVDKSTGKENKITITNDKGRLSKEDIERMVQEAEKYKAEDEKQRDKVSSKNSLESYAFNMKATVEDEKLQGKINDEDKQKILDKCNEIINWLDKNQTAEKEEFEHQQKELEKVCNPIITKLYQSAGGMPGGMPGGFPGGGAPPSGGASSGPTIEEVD

[14] = target: Heat shock 70 kDa protein 1A (Homo sapiens, UniProt P0DMV8); test: Hsp70 inhibitors, SAR follow-up, biochemical, fluorescence polarization (AID 1072)
Heat shock 70 kDa protein 1A, sequence (P0DMV8 whole entry): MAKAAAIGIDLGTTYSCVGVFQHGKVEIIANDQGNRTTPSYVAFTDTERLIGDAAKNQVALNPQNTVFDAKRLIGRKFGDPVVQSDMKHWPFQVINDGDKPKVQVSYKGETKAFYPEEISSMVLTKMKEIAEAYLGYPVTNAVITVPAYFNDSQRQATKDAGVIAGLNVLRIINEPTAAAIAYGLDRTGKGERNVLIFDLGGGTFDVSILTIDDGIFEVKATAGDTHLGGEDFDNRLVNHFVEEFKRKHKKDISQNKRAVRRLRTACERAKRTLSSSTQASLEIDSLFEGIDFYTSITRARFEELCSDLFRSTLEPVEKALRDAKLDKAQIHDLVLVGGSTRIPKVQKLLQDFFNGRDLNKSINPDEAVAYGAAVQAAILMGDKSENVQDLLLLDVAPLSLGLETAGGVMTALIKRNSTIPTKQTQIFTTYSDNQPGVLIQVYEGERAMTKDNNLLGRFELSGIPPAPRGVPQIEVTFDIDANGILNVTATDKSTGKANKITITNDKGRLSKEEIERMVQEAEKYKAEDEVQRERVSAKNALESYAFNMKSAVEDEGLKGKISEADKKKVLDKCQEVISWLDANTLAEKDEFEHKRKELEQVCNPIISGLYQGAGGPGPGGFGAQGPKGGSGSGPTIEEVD

[15] = target: T6, Dual specificity protein phosphatase 6 (Rattus norvegicus, UniProt Q64346);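 further: in vitro confirmatory secondary MKP-3 assay designed to detect irreversible or slow-binding inhibitors; recombinant His-tagged rat MKP-3 acting on the substrate OMFP; inhibitor potency from reduced phosphatase rate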
T6 sequence (Q64346 whole entry): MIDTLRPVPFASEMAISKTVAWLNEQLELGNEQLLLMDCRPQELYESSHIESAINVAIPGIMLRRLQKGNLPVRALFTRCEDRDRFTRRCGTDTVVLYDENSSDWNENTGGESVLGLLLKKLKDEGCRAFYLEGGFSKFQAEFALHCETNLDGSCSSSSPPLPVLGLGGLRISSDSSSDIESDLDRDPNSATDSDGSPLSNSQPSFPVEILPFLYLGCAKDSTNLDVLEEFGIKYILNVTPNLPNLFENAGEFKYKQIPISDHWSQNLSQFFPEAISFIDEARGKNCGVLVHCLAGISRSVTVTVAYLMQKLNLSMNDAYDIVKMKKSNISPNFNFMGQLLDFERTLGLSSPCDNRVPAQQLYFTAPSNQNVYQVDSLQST

[16] = target: Dual specificity protein phosphatase 3 (Homo sapiens, UniProt P51452); test: SAR VHR1 Fluorescent Assay for In Vitro dose response studies. [Related pubchem assays (depositor defined):AID1654, AID1661, AID1878, AID1992, AID2004, AID2070, AID2085]; format: functional
Dual specificity protein phosphatase 3, sequence (P51452 whole entry): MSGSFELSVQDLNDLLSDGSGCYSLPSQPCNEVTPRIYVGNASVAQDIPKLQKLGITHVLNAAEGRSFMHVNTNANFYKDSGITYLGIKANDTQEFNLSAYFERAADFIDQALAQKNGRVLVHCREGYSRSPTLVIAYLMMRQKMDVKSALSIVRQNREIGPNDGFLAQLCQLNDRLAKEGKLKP

[17] = target: T5, Tyrosine-protein phosphatase non-receptor type 7; test: redox-dependent HePTP inhibition, mechanism study, biochemical, fluorescence (AID 2068); format: functional

COc1cc2c3nnc(-c4ccccc4)c-3cn(Cc3ccccc3F)c2cc1OC
EC50 [1]: > 300 µM (not active)
EC50 [2]: > 300 µM (inconclusive)
EC50 [3]: 0.807 µM (active)
EC50 [4]: 5.8 µM (active)
EC50 [5]: > 99 µM (inactive)
EC50 [6]: 34.6 µM (inactive)

O=C(O)C1CCCCC1C(=O)NCCc1ccccc1 (stereo not drawn)
IC50 (Coagulation factor XII): > 50 µM (inactive)
IC50 (cells [7]): > 29.9 µM (inactive)
EC50 [8]: 1.42 µM (active)
IC50 [9]: 8.04 µM (active)
EC50 (cells [10]): > 29.9 µM (inactive)

O=C1c2ccccc2CC1Sc1nnc(-c2ccco2)c(-c2ccco2)n1 (stereo not drawn)
IC50 [11]: 8.11 µM (active)
IC50 [12]: > 100 µM (not active)
IC50 [13]: > 100 µM (not active)
IC50 [14]: > 100 µM (not active)
IC50 [15]: 42.1 µM (active)
IC50 [16]: 27.9 µM (active)
IC50 [17]: 1.12 µM (active)
